In patent US9238003B2, “Extended or continuous wear silicone hydrogel contact lenses for the extended release of comfort molecules” (AUBURN UNIVERSITY, priority 2005, dated 2016):

Columns and labels:
Format in all cases: physicochemical
[1] = Dynamic HPMC release studies, perfect sink (Sotax dissolution apparatus, DI water); settings: soaked LFB lenses
Protocol: Dynamic HPMC Release Studies. Dynamic release studies were conducted to measure how long each therapeutic contact lens would release HPMC in-vitro. The studies were conducted with the perfect sink model in order to sustain the greatest driving force, using a Sotax Dissolution Apparatus (Horsham, Pa.), in which loaded lenses were placed in 250 mL of DI water (pH 6.4). Separate experiments were conducted to confirm the perfect sink volume.
In the Sotax apparatus, the release media was stirred at a constant rate of 30 rpm by paddles and kept at a constant temperature of 34° C. The average weight of the lenses out of the mold was 35 mg±6 mg. HPMC concentration in the release medium was determined via HPLC (Shimadzu, Japan) equipped with a refractive index detector. The mobile phase was deionized water, and a flow rate of 1 mL/min was maintained by the HPLC. A standard curve of refractive index and known HPLC concentration was established. Percent mass release curves were plotted for each lens.

[2] = Loading of HPMC into LFB lenses by soaking in aqueous HPMC solution
Source text: The first step of this work was to assess the feasibility of loading HPMC directly into a lens. […] The mass uptake of various HPMC solutions is presented in Table 2 (showing mass loading of various HPMC concentrations and molecular weights).

[3] = Heat stability of HA solutions; settings: heated 60 minutes
Protocol: The effect of heat conditions on HA solution was also assessed. In 2 mL microcentrifuge vials, 1 mL samples of HA solutions of 500 ng/mL and 10 μg/mL were heated to 105° C. and 121EC respectively. The 500 ng/mL samples were heated for 0 minutes, 5 minutes, 30 minutes and 60 minutes while the 10 μg/mL samples were heated for 15 minutes, 30 minutes, 45 minutes and 60 minutes. The sample vials were quenched in a room temperature water bath and assayed with an ELISA assay kit for HA.

[4] = Dynamic release of HA from hydrogel lenses in lacrimal solution (ELISA); settings: largest HA, 1 million daltons; 6.5 mg HA per g PM
Protocol: Dynamic Release Studies. Dynamic release studies were conducted to measure how long a therapeutic contact lens would release drug in vitro under conditions similar to the eye surface. The studies are also able to reveal the order of the release.
The protocol for a kinetic release study begins with the synthesis of hydrogel as described previously. As each study was conducted in triplicate, three lenses were made of every HA-prepolymer formulation. A lacrimal solution isotonic with human tears (6.78 g/L NaCl, 2.18 g/L NaHCO3, 1.38 g/L Kcl, 0.084 g/L CaCl2 2H2O, pH 8) was pipetted into 50 mL centrifugation tubes, 20 mL per tube. Each lens was placed in a tube and incubated at 35EC on an orbital shaker. After measured time intervals, the lenses were extracted and deposited into fresh lacrimal solution. The lacrimal solution with HA released in it was stored at 4° C. until essayed. After data had been collected for 3-5 days, an ELISA assay for HA was used to determine the concentration in each release sample. If necessary, the samples were diluted to bring into the assay detection range.
Cumulative release curves were plotted for each lens formulation, and the data was used to calculate the rate of diffusion of HA from the hydrogel. The transport of the drug from the lens placed in a fluid environment was mathematically modeled. […]

[5] = Pre-polymer loading of HPMC into LFB lens formulation
Protocol: Synthesis of LFB Lenses and Synthesis of Imprinted LFB Lenses. Lenses were produced by mixing individual monomers of the LFB formulation. The monomers were kept refrigerated at 4° C. A typical formulation consisted of 1300 mg of Betacon macromer, 1300 mg of TRIS, and 1300 mg of DMA (referred to as the base formulation). The base formulation was equal parts of these monomers and used to calculate ratios of other components. Equal weights of EGDMA and PEG200DMA were added to a desired concentration anywhere between 0 and 10 wt % of the base formulation Imprinting monomers were then added between 0 and 10 wt % of the base formulation. Darocur 1173 was added to the solution to a concentration of 1% of the base formulation. The samples were thoroughly mixed by sonication for 30 minutes and then the comfort agent was added to the desired concentration. The formulations were exposed to high shear mixing for up to 1 minute and sonicated for at least 15 minutes to remove any dissolved air or air bubbles. After the comfort agent was added, the sample was sonicated and mixed until evenly dispersed.
A fixed volume was pipetted into polypropylene (PP) lens molds provided by CIBA Vision, Inc. The mass of formulation pipetted varied between 100 to 200 mg depending on the concentration of comfort agent. […]

Row | Release Time After 7 Day Soak [1] | release time from soaked lenses [1] | Mass Loaded from Drug Solutions ([2]; 1 Day Soak, 0.1%) | Mass Loaded from Drug Solutions ([2]; 1 Day Soak, 1%) | Mass Loaded from Drug Solutions ([2]; 1 Day Soak, 10%) | Mass Loaded from Drug Solutions ([2]; 2 Day Soak, 0.1%) | Mass Loaded from Drug Solutions ([2]; 2 Day Soak, 1%) | Mass Loaded from Drug Solutions ([2]; 2 Day Soak, 10%) | Mass Loaded from Drug Solutions ([2]; 7 Day Soak, 0.1%) | Mass Loaded from Drug Solutions ([2]; 7 Day Soak, 1%) | Mass Loaded from Drug Solutions ([2]; 7 Day Soak, 10%) | change in signal strength (heat degradation of large HA) ([3]; 500 ng/mL solution) | change in concentration (heat degradation of large HA) ([3]; 10 μg/mL solution) | time HA was diffusing out of the lens [4] | loading after soaking in a solution for a week ([2]; any solution concentration) | loading of HPMC limited by thickness ([5]; 100 μm swollen lens thickness) | maximum mass of HPMC loaded (pre-polymer loaded) ([5]; 350 μm thick lens) | Substance
1 | 30 min | less than 30 minutes | 0.32 μg/lens | 4.1 μg/lens | 5.4 μg/lens | 0.21 μg/lens | 3.2 μg/lens | 6.9 μg/lens | 1.2 μg/lens | 5.7 μg/lens | 2.9 μg/lens | – | – | – | – | – | – | hydroxypropyl methylcellulose [HPMC 10 KDa]
2 | – | – | – | – | – | – | – | – | – | – | – | 50% | 30% | up to 3 days | – | – | – | Hyaluronic Acid [HA]
3 | None | – | 0.09 μg/lens | 0.07 μg/lens | 0.4 μg/lens | 0.09 μg/lens | 0.65 μg/lens | 0 μg/lens | 0.01 μg/lens | 0.48 μg/lens | 0 μg/lens | – | – | – | – | – | – | hydroxypropyl methylcellulose [HPMC 90 KDa]
4 | None | – | 0.001 μg/lens | 0.003 μg/lens | 0.004 μg/lens | 0.08 μg/lens | 0.04 μg/lens | 0.01 μg/lens | 0.006 μg/lens | 0.2 μg/lens | 0.1 μg/lens | – | – | – | ≤ 0.2 μg/lens | ~1,000 μg/lens | ~8,000 μg/lens | hydroxypropyl methylcellulose [HPMC 120 KDa]
